Experimental data published in patent publication US11208405B2, “Pyrrole derivatives as PLK1 inhibitors” (SENTINEL ONCOLOGY LIMITED, priority 2017, dated 2021).
Where a name gives a salt, the structure may show the parent alone.

What was measured:
[1] = test system: KRAS G12V HeLa cell line; experiment: Wild-type versus KRAS HeLa cell viability: oncogenic KrasG12V transgene; assay type: cell-based; conditions: Homo sapiens; HeLa cells expressing KRAS G12V, 72 hours
Procedure: Assay to Measure the Effects of Compounds of the Invention on Wild-Type Versus KRAS HeLa Cell Viability
Identifying synthetic lethal interactions between targeted small molecule therapies and characterised oncogenic mutations is a goal of modern oncology drug discovery efforts. To this end, PLK1-PBD inhibitors were tested on HeLa cells engineered to inducibly express wild-type or oncogenic KrasG12V transgenes using the FLP-in/T-Rex system (Invitrogen). Cells were plated, and then treated with or without Doxycycline to induce transgene expression, and then treated with serially-diluted PBD inhibitors. After 72 hours of incubation, cell viability was assessed using the Cell Titre Blue reagent (Promega) and a BMG Pherastar plate reader. The effect of PBD inhibition on cell viability with either wild-type or oncogenic G12V KRAS was assessed using the graphing/curve-fitting packages in GraphPad Prism.

[2] = molecular target: T1, AURKA (Homo sapiens, UniProt O14965); experiment: Kinase selectivity assay (DiscoverX KinomeScreen), AURKA; assay type: binding; conditions: read-out: % Control
T1 construct: purchased DiscoverX
T1 sequence (O14965 whole entry): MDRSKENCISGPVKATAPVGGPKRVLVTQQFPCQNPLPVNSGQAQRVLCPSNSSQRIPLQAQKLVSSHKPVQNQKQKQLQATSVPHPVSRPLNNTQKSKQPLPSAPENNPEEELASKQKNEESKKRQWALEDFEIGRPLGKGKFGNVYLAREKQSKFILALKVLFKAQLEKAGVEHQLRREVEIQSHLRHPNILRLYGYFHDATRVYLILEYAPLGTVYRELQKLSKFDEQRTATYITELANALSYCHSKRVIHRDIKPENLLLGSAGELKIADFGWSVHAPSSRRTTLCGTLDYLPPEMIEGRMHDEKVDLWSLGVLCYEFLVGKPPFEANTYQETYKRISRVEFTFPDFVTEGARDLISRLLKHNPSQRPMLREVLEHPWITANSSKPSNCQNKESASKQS
Procedure: (§1) The compound of Example 33 was tested for off-target activity against a panel of fifty five kinases bearing functional or structural similarity to PLK1 at a concentration of 5 μM using the DiscoverX KinomeScreen assay.

[3] = test system: glioblastoma cell line 907042; experiment: Glioblastoma cancer cell viability, cell line 907042; assay type: cell-based
Procedure: (§2) Assay to Measure the Effects of Compounds of the Invention on Glioblastoma Cancer Cell Viability
(§3) The compound of Example 33 was tested for inhibitory activity against the glioblastoma cell lines in Table 7 below.

[4] = test system: cytochrome P450 1A; experiment: Cytochrome P450 inhibition, 1A; assay type: in vitro ADME
[5] = molecular target: T2, DSTYK (Homo sapiens, UniProt Q6XUX3); experiment: Kinase selectivity assay (DiscoverX KinomeScreen), DSTYK; assay type: binding; conditions: read-out: % Control
T2 construct: purchased DiscoverX
T2 sequence (Q6XUX3 whole entry): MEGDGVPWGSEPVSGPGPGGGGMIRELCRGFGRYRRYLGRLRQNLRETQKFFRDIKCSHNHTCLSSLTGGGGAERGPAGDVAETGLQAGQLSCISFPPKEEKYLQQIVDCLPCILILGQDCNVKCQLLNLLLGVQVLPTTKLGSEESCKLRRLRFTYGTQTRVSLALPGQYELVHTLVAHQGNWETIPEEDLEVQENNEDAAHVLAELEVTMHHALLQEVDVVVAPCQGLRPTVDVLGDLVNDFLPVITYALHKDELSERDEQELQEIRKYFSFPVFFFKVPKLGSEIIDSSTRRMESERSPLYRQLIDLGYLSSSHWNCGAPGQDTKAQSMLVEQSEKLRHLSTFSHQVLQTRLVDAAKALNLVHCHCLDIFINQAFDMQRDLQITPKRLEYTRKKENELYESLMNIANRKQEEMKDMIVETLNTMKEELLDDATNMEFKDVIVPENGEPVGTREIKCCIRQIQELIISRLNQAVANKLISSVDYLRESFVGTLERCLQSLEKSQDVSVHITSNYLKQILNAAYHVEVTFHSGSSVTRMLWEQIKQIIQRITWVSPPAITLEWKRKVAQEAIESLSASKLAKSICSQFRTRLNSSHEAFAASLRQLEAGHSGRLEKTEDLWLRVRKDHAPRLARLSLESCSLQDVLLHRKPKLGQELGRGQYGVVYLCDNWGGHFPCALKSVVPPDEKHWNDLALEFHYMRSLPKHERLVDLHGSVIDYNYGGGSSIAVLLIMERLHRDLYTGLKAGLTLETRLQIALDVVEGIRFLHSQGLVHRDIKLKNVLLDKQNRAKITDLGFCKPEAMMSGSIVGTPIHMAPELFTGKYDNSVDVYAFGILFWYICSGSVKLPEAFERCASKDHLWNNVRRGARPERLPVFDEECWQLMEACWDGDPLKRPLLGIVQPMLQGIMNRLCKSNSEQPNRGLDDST
Procedure: as §1

[6] = molecular target: T3, WNK4 (Homo sapiens, UniProt Q96J92); experiment: Kinase selectivity assay (DiscoverX KinomeScreen), WNK4; assay type: binding; conditions: WNK4, 5 μM; read-out: % Control
T3 construct: purchased DiscoverX
T3 sequence (Q96J92 whole entry): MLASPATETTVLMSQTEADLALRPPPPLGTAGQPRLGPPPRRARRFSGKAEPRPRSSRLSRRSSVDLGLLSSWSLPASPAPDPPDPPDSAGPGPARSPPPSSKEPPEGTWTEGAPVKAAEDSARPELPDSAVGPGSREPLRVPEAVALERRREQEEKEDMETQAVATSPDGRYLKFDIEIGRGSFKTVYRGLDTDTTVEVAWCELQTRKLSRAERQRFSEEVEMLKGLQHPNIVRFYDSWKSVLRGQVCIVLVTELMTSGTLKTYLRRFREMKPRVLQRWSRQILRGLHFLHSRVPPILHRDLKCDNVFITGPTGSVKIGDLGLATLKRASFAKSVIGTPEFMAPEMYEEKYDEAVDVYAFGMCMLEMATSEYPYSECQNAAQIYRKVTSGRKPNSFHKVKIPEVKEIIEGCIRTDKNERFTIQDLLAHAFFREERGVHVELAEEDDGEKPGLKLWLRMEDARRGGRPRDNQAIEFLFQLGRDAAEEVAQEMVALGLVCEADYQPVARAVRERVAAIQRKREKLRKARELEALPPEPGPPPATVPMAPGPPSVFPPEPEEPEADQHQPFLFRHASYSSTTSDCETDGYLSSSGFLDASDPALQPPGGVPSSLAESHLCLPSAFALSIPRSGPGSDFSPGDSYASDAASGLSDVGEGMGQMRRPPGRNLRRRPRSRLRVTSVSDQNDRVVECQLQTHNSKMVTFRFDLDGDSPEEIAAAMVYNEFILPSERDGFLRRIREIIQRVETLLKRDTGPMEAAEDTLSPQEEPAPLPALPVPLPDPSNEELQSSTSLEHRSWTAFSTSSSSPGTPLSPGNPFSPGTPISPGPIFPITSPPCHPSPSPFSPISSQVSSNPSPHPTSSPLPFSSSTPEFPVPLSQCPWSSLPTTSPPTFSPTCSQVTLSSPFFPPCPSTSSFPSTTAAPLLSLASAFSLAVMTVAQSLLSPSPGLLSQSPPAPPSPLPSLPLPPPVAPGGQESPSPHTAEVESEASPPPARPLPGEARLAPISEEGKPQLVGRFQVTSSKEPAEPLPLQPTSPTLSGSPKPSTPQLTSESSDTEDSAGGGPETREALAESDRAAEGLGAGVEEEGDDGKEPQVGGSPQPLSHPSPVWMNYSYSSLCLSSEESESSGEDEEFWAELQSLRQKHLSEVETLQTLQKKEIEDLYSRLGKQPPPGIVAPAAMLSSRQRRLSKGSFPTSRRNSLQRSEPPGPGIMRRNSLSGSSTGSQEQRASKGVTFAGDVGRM
Procedure: as §1

[7] = molecular target: T4, GSG2 (Homo sapiens, UniProt Q8TF76); experiment: Kinase selectivity assay (DiscoverX KinomeScreen), GSG2; assay type: binding; conditions: GSG2, 5 μM; read-out: % Control
T4 construct: purchased DiscoverX
T4 sequence (Q8TF76 whole entry): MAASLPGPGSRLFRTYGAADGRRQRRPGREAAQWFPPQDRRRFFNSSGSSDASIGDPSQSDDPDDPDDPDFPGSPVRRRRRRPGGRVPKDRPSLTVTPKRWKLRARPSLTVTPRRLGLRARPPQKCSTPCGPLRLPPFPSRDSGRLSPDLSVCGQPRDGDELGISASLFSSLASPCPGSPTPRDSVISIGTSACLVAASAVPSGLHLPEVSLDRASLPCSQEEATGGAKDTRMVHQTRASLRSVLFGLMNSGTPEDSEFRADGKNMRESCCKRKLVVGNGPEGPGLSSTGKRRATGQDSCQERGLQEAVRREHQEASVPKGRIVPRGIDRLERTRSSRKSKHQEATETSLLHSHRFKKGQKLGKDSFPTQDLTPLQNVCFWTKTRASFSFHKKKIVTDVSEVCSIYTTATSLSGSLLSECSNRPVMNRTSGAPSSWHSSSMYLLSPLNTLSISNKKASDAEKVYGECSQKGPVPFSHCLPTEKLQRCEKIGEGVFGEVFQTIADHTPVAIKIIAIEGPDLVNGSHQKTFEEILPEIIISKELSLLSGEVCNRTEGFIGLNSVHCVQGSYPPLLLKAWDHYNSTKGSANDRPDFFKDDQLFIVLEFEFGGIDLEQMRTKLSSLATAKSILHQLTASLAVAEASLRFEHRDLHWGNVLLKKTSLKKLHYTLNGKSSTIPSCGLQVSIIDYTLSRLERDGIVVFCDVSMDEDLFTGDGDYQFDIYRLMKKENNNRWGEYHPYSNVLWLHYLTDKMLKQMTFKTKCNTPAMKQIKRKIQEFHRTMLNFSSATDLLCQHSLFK
Procedure: as §1

[8] = molecular target: T5, IKBKB (Homo sapiens, UniProt O14920); experiment: Kinase selectivity assay (DiscoverX KinomeScreen), IKBKB; assay type: binding; conditions: read-out: % Control
T5 construct: purchased DiscoverX
T5 sequence (O14920 whole entry): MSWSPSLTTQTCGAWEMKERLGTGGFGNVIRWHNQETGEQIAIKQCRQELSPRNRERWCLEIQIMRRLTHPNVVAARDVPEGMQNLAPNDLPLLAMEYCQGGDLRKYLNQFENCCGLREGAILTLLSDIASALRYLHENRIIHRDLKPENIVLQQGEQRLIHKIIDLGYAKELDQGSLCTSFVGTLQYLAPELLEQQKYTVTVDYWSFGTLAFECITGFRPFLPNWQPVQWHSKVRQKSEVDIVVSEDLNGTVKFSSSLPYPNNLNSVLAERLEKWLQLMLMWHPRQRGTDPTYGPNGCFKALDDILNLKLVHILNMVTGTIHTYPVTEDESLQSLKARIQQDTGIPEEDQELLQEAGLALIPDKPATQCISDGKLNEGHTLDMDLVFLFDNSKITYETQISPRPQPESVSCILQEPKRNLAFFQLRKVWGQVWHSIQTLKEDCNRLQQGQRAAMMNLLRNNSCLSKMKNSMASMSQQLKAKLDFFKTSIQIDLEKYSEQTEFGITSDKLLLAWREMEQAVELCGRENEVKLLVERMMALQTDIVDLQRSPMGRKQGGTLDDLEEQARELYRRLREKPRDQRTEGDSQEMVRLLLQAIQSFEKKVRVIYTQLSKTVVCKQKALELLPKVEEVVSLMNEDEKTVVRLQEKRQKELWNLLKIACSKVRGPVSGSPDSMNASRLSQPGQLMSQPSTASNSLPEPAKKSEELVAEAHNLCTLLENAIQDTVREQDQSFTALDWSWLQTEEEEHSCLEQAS
Procedure: as §1

[9] = molecular target: T6, TBK1 (Homo sapiens, UniProt Q9UHD2); experiment: Kinase selectivity assay (DiscoverX KinomeScreen), TBK1; assay type: binding; conditions: TBK1, 5 μM; read-out: % Control
T6 construct: purchased DiscoverX
T6 sequence (Q9UHD2 whole entry): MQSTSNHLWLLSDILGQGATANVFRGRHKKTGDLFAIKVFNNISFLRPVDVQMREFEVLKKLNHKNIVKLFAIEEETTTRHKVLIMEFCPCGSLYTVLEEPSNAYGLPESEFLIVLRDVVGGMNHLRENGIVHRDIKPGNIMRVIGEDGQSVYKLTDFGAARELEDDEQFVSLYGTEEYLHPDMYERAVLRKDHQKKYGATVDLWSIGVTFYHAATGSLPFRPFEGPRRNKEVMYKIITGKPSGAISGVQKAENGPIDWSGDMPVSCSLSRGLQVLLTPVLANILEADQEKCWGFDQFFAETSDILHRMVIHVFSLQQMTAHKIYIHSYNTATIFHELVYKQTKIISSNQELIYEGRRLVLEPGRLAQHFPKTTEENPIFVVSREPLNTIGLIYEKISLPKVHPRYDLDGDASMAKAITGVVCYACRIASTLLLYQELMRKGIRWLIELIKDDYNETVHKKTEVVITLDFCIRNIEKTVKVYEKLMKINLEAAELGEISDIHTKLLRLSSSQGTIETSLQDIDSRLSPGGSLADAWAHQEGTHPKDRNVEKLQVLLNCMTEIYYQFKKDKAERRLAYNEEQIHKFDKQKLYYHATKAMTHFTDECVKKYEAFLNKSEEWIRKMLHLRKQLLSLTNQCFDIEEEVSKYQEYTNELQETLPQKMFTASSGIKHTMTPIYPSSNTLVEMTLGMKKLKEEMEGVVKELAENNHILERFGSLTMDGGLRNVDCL
Procedure: as §1

[10] = test system: HCT116 cells; experiment: Effects on HCT116 colorectal cancer cell viability (cell titre blue, 72 hours); assay type: cell-based; conditions: Homo sapiens, HCT-116, HCT116 cell line
[11] = test system: glioblastoma cell line 946368; experiment: Glioblastoma cancer cell viability, cell line 946368; assay type: cell-based
Procedure: as §2, §3

[12] = test system: glioblastoma cell line 907271; experiment: Glioblastoma cancer cell viability, cell line 907271; assay type: cell-based
Procedure: as §2, §3

CN(C)CCNC(=O)c1ccc(-c2ccc(-c3ccc(Cl)cc3)n2-c2ccccc2C(F)(F)F)cc1 [Example 33, 4-[5-(4-chlorophenyl)-1-[2-(trifluoromethyl)phenyl]pyrrol-2-yl]-N-[2-(dimethylamino)ethyl]benzamide Hydrochloride]
GI50 [1]: 10 nM
remaining activity at 5 µM [2]: 83%
IC50 [3]: 71 nM
cytochrome P450 inhibition 1A [4]: > 10 µM
remaining activity at 5 µM [5]: 75%
remaining activity at 5 µM [6]: 91%
remaining activity at 5 µM [7]: 77%
remaining activity at 5 µM [8]: 100%
remaining activity at 5 µM [9]: 80%
GI50 [10]: 10 nM
IC50 [11]: 1400 nM
IC50 [12]: 2060 nM
